Data as given in publication PMC7311409, “Crystal structures of SAMHD1 inhibitor complexes reveal the mechanism of water-mediated dNTP hydrolysis” (Nature Communications, 2020).
Like-named read-outs stand apart in the source and are kept apart here.

Columns and labels:
SAMHD1 [1] = biological target: T1, SAMHD1 (Homo sapiens, UniProt Q9Y3Z3); design: wt-SAMHD1(1-626); MDCC-PBP phosphate sensor coupled SAMHD1-Ppx1 assay, competitive inhibition of TTP hydrolysis, global fit; details: GTP-activated, substrate TTP 0.1-1 mM, pH 8.0, 25 °C; inhibitor
Experimental: To obtain quantitative kinetic parameters for substrate hydrolysis (KM and kcat) and for inhibition by dNMPNPP analogues (Ki) a coupled assay was employed utilising the biosensor MDCC-PBP[90],[91] to measure phosphate release from combined SAMHD1 triphosphohydrolase and S. cerevisiae Ppx1 exopolyphosphatase activity. In a typical experiment, solutions containing wt-SAMHD1(1-626), Ppx1, MDCC-PBP and GTP were incubated for 5 min in assay buffer (20 mM Tris pH 8.0, 150 mM NaCl, 5 mM MgCl2 and 2 mM TCEP) at 25 °C before the reaction was initiated by the addition of nucleotides and nucleotide analogues. The final concentrations were 0.2 µM SAMHD1, 0.01 µM Ppx1, 40 µM MDCC-PBP, 0.2 mM GTP and varying concentrations of dNTP substrates and analogues. The fluorescence intensity was recorded at 430 nm excitation and 465 nm emission over a period of 10–30 min in a Clariostar multiwell plate reader (BMG Labtech). […] Apparent dissociation constants for substrate binding (KM) and catalytic constants (kcat) were then determined by non-linear least-squares fitting using a hyperbolic function in the software package Prism 7 (Graphpad). […] The fitting was performed with a fixed value of KM for GTP-activated TTP hydrolysis, determined previously[35] and only kcat and Ki were allowed to vary. […]
Target sequence in this assay (Q9Y3Z3 whole entry): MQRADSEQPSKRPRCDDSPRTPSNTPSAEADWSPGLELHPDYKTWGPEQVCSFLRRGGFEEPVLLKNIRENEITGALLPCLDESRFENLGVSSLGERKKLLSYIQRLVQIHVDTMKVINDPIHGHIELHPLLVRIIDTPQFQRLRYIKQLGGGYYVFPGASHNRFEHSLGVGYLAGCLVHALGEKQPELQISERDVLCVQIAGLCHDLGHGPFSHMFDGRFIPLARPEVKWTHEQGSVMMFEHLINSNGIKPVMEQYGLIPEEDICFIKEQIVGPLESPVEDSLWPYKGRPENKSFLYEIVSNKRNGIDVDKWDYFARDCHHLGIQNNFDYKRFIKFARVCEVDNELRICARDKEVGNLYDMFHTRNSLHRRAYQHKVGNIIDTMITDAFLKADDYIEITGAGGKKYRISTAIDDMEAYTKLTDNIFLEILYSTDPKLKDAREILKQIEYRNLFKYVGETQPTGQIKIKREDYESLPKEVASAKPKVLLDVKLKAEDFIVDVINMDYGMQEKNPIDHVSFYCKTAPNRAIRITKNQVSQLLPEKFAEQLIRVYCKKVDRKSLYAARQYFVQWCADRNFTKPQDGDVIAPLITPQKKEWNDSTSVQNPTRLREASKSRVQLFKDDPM

SAMHD1 [2] = biological target: T1, SAMHD1; experiment: X-ray co-crystal structure; competitive inhibition in coupled enzyme assay; format: binding; design: residues 109-626 (crystal)
Target sequence in this assay (Q9Y3Z3 109-626): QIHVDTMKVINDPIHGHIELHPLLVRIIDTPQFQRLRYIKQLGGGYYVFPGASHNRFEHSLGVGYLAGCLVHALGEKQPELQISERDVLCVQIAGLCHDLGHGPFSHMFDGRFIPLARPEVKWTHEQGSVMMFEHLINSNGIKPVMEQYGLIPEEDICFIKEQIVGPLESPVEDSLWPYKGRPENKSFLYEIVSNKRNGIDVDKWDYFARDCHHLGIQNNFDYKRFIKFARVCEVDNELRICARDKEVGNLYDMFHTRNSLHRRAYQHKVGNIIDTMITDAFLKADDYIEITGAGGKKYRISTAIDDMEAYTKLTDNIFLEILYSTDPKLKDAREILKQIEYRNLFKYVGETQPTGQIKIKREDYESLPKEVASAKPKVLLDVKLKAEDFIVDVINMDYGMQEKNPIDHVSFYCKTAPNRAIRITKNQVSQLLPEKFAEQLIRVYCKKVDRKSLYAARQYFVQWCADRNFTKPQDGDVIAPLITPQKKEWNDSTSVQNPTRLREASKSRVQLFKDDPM

SAMHD1 [3] = biological target: T2, SAMHD1 (Homo sapiens, UniProt Q9Y3Z3, D137N); experiment: X-ray co-crystal structure; activation of dNTP hydrolysis; format: binding
T2 construct: residues 109-626

SAMHD1 [4] = biological target: T2, SAMHD1; experiment: X-ray co-crystal structure; format: binding
SAMHD1 [5] = biological target: T1, SAMHD1; experiment: MDCC-PBP/Ppx1 coupled triphosphohydrolase assay, competitive inhibition of TTP hydrolysis, global fit; SEC-MALLS tetramerisation; format: biochemical; design: wt-SAMHD1(1-626)
Target sequence in this assay (Q9Y3Z3 whole entry): as the sequence (Q9Y3Z3 whole entry) above

T2 sequence (Q9Y3Z3 109-626 D137N): as the sequence (Q9Y3Z3 109-626) above, with D29N counted along it

| SMILES | Ki (SAMHD1 [1]) | Ki (SAMHD1 [5]) | other results |
| --- | --- | --- | --- |
| Cc1cn([C@H]2C[C@H](O)[C@@H](COP(=O)(O)NP(=O)(O)OP(=O)(O)O)O2)c(=O)[nH]c1=O [TMPNPP] | 370 ± 20 nM |  | X-ray co-crystal structure (SAMHD1 [2]): (ii) GTP (AL1), dATP (AL2) and TMPNPP (active site) |
| O=c1[nH]c(=O)c2ncn([C@@H]3O[C@H](COP(=O)(O)OP(=O)(O)OP(=O)(O)O)[C@@H](O)[C@H]3O)c2[nH]1 [XTP] |  |  | X-ray co-crystal structure; activation of dNTP hydrolysis (SAMHD1 [3]): D137N-SAMHD1 is activated by xanthosine-5′-triphosphate (XTP) rather than GTP through AL1-binding |
| Nc1nc2c(ncn2[C@H]2C[C@H](O)[C@@H](COP(=O)(O)NP(=O)(O)OP(=O)(O)O)O2)c(=O)[nH]1 [dGMPNPP] |  | 52 nM | X-ray co-crystal structure (SAMHD1 [4]): (ii) XTP (AL1) and dGMPNPP (AL2 and active site) |
| Nc1ncnc2c1ncn2[C@H]1C[C@H](O)[C@@H](COP(=O)(O)NP(=O)(O)OP(=O)(O)O)O1 [dAMPNPP] |  | 780 nM |  |
| Nc1ccn([C@H]2C[C@H](O)[C@@H](COP(=O)(O)NP(=O)(O)OP(=O)(O)O)O2)c(=O)n1 [dCMPNPP] | 73 ± 3 nM |  |  |
